In patent US4837342A, “Prostacyclin analogue, and blood circulation improving agent and anti-ulcer composition containing it as active ingredient” (Sagami Chemical Research Center, priority 1986, dated 1989):
Values joined by “and” are separate entries in the source; they are usually repeats but may differ in a detail not shown here. Identical values can stand only once.

How the values were obtained:
[1] = test system: vertebral artery; assay: Blood flow-increasing activity in the vertebral artery, anesthetized dog; assay type: in vivo, crossbred adult dog; details: for ED50: Canis lupus familiaris, papaverine hydrochloride 100 μg/kg = 100%; for Activity ratio, blood flow-increasing activity in vertebral artery: relative to prostacyclin = 1
From the text: Blood flow-increasing activity in the vertebral artery
A made or female crossbred adult dog having a weight of from 8 to 13 kg was anesthetized by intravenous administration of sodium Pentobarbital and subjected to thoractomy along the mediam line under artificial respiration to expose the left vertebral artery. Under sodium peparin treatment, a polyethylene cannula was inserted into the vertebral artery, and a blood flow-measuring probe was attached to its other end, to which a blood circulation tube led from the left femoral artery was connected, whereby the blood flow in the vertebral artery was measured by using an electromagnetic flow meter. The test compound was injected into the vertebral artery by near arterial injection, and the blood flow-increasingactivity in the vertebral artery was represented by ED50 (i.e. the dose of a test compound at which the blood flow increases by 50%, as evaluated on the basis that the blood flow increase (representing substantially the maximum reaction) by the administration of 100 μg/kg papaverine hydrochloride into the vertebral artery, is evaluated to be 100%).

[2] = test system: Indomethacine ulcer; assay: Indomethacine ulcer inhibiting activity; assay type: in vivo, Male wister rats; details: rat; oral administration of 60 μg/kg twice
From the text: Indomethacine ulcer inhibiting activity
Male wister rats having a weight of from 210 to 270 g were used. The rats were starved in the same manner as in Test Example 6. […] Three hours after the indomethacine administration, the test compound or PGE2 was again orally administered in the same amount. Six hours after the first administration of indomethacine, each rat was killed by cervical bertebral luxation. The stomach was taken out and fixed, and the ulcer index was obtained, in the same manner as in Test Example 6.
The indomethacine ulcer inhibiting activity of a test compound was represented by the inhibiting percentage (i.e. the inhibiting percentage of the ulcer index of the treated group to the ulcer index of the non-treated group). To the non-treated group, the solvent was administered.

[3] = test system: coronary artery; assay: Blood flow-increasing activity in the coronary artery, anesthetized dog; assay type: in vivo, crossbred adult dog; details: for ED50: Canis lupus familiaris, dog, near arterial injection, reactive hyperemia = 100%; for Activity ratio, blood flow-increasing activity in coronary artery: relative to prostacyclin = 1
Description: Blood flow-increasing activity in the coronary artery
A crossbred adult dog having a weight of from 9 to 15 kg was anesthetized with sodium Pentobarbital and subjected to thoractomy under artificial respiration. After pericardiectomy, the frontal descending branch of the left coronary artery was separated from the surrounding tissues, and a blood flow-measuring probe was attached thereto under sodium heparin treatment. The coronary blood flow was measured by using an electromagnetic flow meter. The test compound was injected into the coronary artery by near arterial injection, and the blood flow-increasing activity in the coronay artery was represented by ED50 (i.e. the dose of a test compound at which the blood flow increases by 50%, as evaluated on the basis that the blood flow increase by the reactive hyperemia caused by releasing the blood flow of the coronary artery after blocking it for 15 seconds, is evaluated to be 100%).

[4] = test system: Ethanol ulcer; assay: Ethanol ulcer inhibiting activity; assay type: in vivo, Male wister rats; details: rat; for ED50: po, P.O., 30 minutes before 99.5% ethanol
Description: Ethanol ulcer inhibiting activity
Male wister rats having a weight of from 170 to 270 g were put into individual cages and starved for 24 hours. During this starvation period, the rats were allowed to drink water freely. A test compound or PGE2 as a comparative compound was orally administered in an amount of 3, 10 or 30 μg/kg, and 30 minutes later, 1 ml of 99.5% ethanol was orally administered to each rat. One hour after the ethanol administration, each rat was filled by cervical vertebral luxation, and the stomach was taken out. A 1% formaline solution was injected into the stomach in an amount of about 8 ml, and the stomach was fixed in the formaline solution for 30 minutes. After the fixing, the stomach was severed along the greater curvature, and the mucous membrane surface of the stomach was gently washed with flowing water. Then, the total length of damages appearing on the gastric glandular portion was obtained and used as the ulcer index.
The ethanol ulcer inhibiting activity of a test compound was represented by ED50 (i.e. the dose of the test compound at which the ulcer was inhibited by 50% relative to the ulcer index of the non-treated group). To the non-treated group, the solvent was administered.

[5] = test system: femoral artery; assay: Blood flow-increasing activity in the femoral artery, anesthetized dog; assay type: in vivo, crossbred adult dog; details: for ED50: Canis lupus familiaris, dog, near arterial injection, papaverine hydrochloride 100 μg/kg = 100%; for Activity ratio, blood flow-increasing activity in femoral artery: relative to prostacyclin = 1
Description: Blood flow-increasing activity in the femoral artery
A male or female crossbred adult dog having a weight of from 8 to 13 kg, was anesthetized by intravenous administration of sodium Pentobarbital. Then, a tracheal cannula was inserted, and artificial respiration was conducted. The blood flow in the femoral artery was measured by inserting the annula into the left femoral artery under sodium heparin treatment and providing a blood flow measuring probe at it other end, and by using an electromagnetic flow meter. The test compound was injected into the femoral artery by near arterial injection, and the blood flow-increasing activity in the femoral artery was represented by ED50 (i.e. the dose of a test compound at which the blood flow increases by 50%, as evaluated on the bais that the blood flow increase (representing substantially the maximum reaction) by the administration of 100 μg/kg of papaveline hydrochloride into the femoral artery, is evaluted to be 100%).

[6] = test system: Hydrochloric acid ulcer; assay: Hydrochloric acid ulcer inhibiting activity; assay type: in vivo, wister rats; details: rat; oral administration of 30 μg/kg; 0.6N hydrochloric acid; read-out: Hydrochloric acid ulcer inhibiting activity, Inhibiting rate
Description: Hydrochloric acid ulcer inhibiting activity
Male wister […] having a weight of from 190 to 240 g were used. The rats were starved in the same manner as in Test Example 6, and the test compounds and PGE2 were, respectively, orally administered in an amount of 30 μg/kg, and 30 minutes later, 1 ml of 0.6N hydrochloric acid was orally administered. Thirty minutes after the hydrochloric acid administration, each rat was killed by cervical vertebral luxation. Then, the stomach was taken out and fixed, and the ulcer index was obtained, in the same manner as in Test Example 6. The hydrochloric acid ulcer inhibiting activity of a test compound was represented by the inhibiting percentage (i.e. the percentage of the ulcer index of the treated group to the ulcer index of the non-treated group). To the non-treated group, the solvent was administered.

[7] = test system: Blood platelet (ADP agglutination); assay: Blood platelet agglutination inhibiting activity (ADP-induced), washed rabbit platelet suspension; assay type: cell-based, rabbit (Japanese white male rabbits); details: for IC50: Oryctolagus cuniculus, Platelet, ADP 10 μM, concentration suppressing agglutination to 50%, read-out: Platelet agglutination inhibiting activity ED50, ADP agglutination; for Activity ratio, platelet agglutination inhibiting activity, ADP agglutination: relative to prostacyclin = 1
Description: (§1) Blood platelet aggutination inhibiting activity
(§2) Japanese white male rabbits having a weight of from 2.0 to 2.5 kg were used.
(§3) Under anesthesia with sodium Pentobarbital, blood was sampled from the carotid artery, and mixed with a 1/7 volume of an anticoagulant citric acid dextrose solution. Then, the mixture was subjected to centrifugal separation at 140×g for 15 minutes, whereupon the supernatant (platelet rich plasma:PRP) was obtained. PRP was subjected to centrifugal separation at 1,300×g for 7 minutes. The blood platelet pellets thus obtained were washed with a HEPES buffer solution (pH 6.5) for washing blood platelets, and subjected to centrifugal separation at 1,300×g for 7 minutes. The blood platelet pellets washed twice under such condition, were suspended in a suspending liquid (a buffer solution for washing blood platelets, which contains 0.1% of human fibrinogen, 1.8 mM of CaCl2 and 1.2 mM of MgCl2) to obtain a blood platelet suspension having a concentration of from 5×10^8 to 8×10^8 platelets/ml.
(§4) The platelet agglutination ability was measured by means of an agglutination meter. To 380 μl of the platelet suspension, 10 μl of a test compound or a solvent as the control, was added. Three minutes later, 10 μl of a platelet agglutinating substance (10 μM of ADP or 1 μg/ml of collagen, as the final concentration) was added thereto to induce agglutination.
(§5) The blood platelet agglutination inhibiting activity of each test compound was represented by ED50 (i.e. the concentration of the test compound where the platelet agglutination is suppressed to 50%).

[8] = test system: diastolic blood pressure; assay: Hypotensive activity, anesthetized dog; assay type: in vivo, crossbred adult dog; details: for Hypotensive activity, blood pressure decrease: at 10 μg/kg i.v.; for Activity ratio, hypotensive activity: relative to prostacyclin = 1
Description: A male or female crossbred adult dog having a weight of from 9 to 14 kg was anesthetized by intraveous administration of sodium Pentobarbital. Then, the left carotid was exposed under artificial respiration, and the blood pressure was measured by using an electric blood pressure meter. […]

[9] = test system: blood flow of various organs; assay: Blood flow increasing activity in various organs (general statement); details: in vivo
[10] = test system: Blood platelet (Collagen agglutination); assay: Blood platelet agglutination inhibiting activity (collagen-induced), washed rabbit platelet suspension; assay type: cell-based, rabbit (Japanese white male rabbits); details: for IC50: Oryctolagus cuniculus, Platelet, collagen 1 μg/ml, concentration suppressing agglutination to 50%, read-out: Platelet agglutination inhibiting activity ED50, Collagen agglutination; for Activity ratio, platelet agglutination inhibiting activity, Collagen agglutination: relative to prostacyclin = 1
Description: as §1, §2, §3, §4, §5

[11] = test system: ulcer; assay: Anti-ulcer activity (general statement); assay type: in vivo, animals; details: compared with typical PG such as PGE2
From the text: On the basis of this discovery, a further research has been made for the application to the prevention and treatment of digestive organ ulcers, and have accomplished the present invention.

[12] = background; cited from earlier work

| SMILES | ED50 ([1]; dog, near arterial injection) [µg/kg] | Activity ratio, blood flow-increasing activity in vertebral artery [1] | Indomethacine ulcer inhibiting activity, Inhibiting rate [2] [%] | ED50 [3] [µg/kg] | Activity ratio, blood flow-increasing activity in coronary artery [3] | ED50 [4] [µg/kg] | ED50 [5] [µg/kg] | Activity ratio, blood flow-increasing activity in femoral artery [5] | inhibition in vivo at 0.03 mg/kg [6] [%] | IC50 [7] [nM] | Activity ratio, platelet agglutination inhibiting activity, ADP agglutination [7] | Hypotensive activity, blood pressure decrease ([8]; dog) [mmHg] | Activity ratio, hypotensive activity [8] | Activity to increase the blood flow (in words) [9] | IC50 [10] [nM] | Activity ratio, platelet agglutination inhibiting activity, Collagen agglutination [10] | Anti-ulcer activity (in words) [11] | other results |
| --- | --- | --- | --- | --- | --- | --- | --- | --- | --- | --- | --- | --- | --- | --- | --- | --- | --- | --- |
| CCC#CCC(C)[C@H](O)/C=C/[C@@H]1[C@H]2CCC(CCCC(=O)O)=C[C@H]2C[C@H]1O (stereo partly drawn) [(b), 3-(3-carboxypropyl)-7-exo-(3α-hydroxy-4,8-dimethyl-trans-1-octen-6-ynyl)-8-endo-hydroxy-cis-bicyclo[4,3,0]nona-2-ene] | 0.75 | 1/17 | 99.4 | 1.2 | 1/120 | 2.79 | 0.35 | 1/15 | 54.8 | 77 | 1/27 | 27.9 | about 1/135 | activity to increase the blood flow of the vertebral artery, coronary artery and femoral artery | 44 | 1/12 | comparable or superior to typical PG having anti-ulcer activities, such as PGE2 |  |
| CCCCC[C@H](O)/C=C/[C@@H]1[C@H]2CCC(C=CCCC(=O)O)=C[C@H]2C[C@H]1O [(c), 3-(4-carboxy-1-butenyl)-7-exo-(3α-hydroxy-trans-1-octenyl)-8-endo-hydroxy-cis-bicyclo[4,3,0]nona-2-ene] |  |  |  | 2.1 | 1/210 |  | 0.56 | 1/23 | 13.5 | 50 | 1/17 | 27.9 | about 1/125 and 1/125 | activity to increase the blood flow of various organs to a proper extent | 73 | 1/21 |  | Blood flow increase in vertebral artery ([1]; dog, at 3 μg/kg, near arterial injection): 36.9%; Indomethacine ulcer inhibition (in words) [2]: Certain inhibition; Ethanol ulcer inhibition ([4]; oral administration of 30 μg/kg): 31.7% |
| CCC#CCC(C)[C@H](O)/C=C/[C@@H]1[C@H]2CCC(C=CCCC(=O)O)=C[C@H]2C[C@H]1O (stereo partly drawn) [(d), 3-(4-carboxy-1-butenyl)-7-exo-(3α-hydroxy-4,8-dimethyl-trans-1-octen-6-ynyl)-8-endo-hydroxy-cis-bicyclo[4,3,0]nona-2-ene] | 1.9 | 1/43 | 73.5 | 0.38 | 1/38 | 2.55 | 0.9 | 1/38 | 24.1 | 8.7 | 1/3 |  | 1/36 |  |  |  | comparable or superior to typical PG having anti-ulcer activities, such as PGE2 | ED (50 mmHg) ([8]; Canis lupus familiaris, iv, dog, femoral vein, Table 1, read-out: Hypotensive activity ED50 (dose reducing diastolic blood pressure by 50 mmHg)): 8.7 µg/kg |
| CCC#CCC(C)[C@H](O)/C=C/[C@@H]1[C@H]2CCC(CCCCC(=O)O)=C[C@H]2C[C@H]1O (stereo partly drawn) [(f), 3-(4-carboxybutyl)-7-exo-(3α-hydroxy-4,8-dimethyl-trans-1-octen-6-ynyl)-8-endo-hydroxy-cis-bicyclo[4,3,0]nona-2-ene] | 0.57 | 1/13 | 38.8 | 1.75 | 1/269 | 2.92 | 0.56 | 1/23 | 20.5 | 23 | 1/8 | 33 | 1/77 |  |  | 1/8 | comparable or superior to typical PG having anti-ulcer activities, such as PGE2 |  |
| CCCCC[C@H](O)/C=C/[C@@H]1[C@H]2CC(CCCCC(=O)O)=C[C@H]2C[C@H]1O [isocarbacyclin, 9(O)-methano-Δ^6(9α) -PGI1] |  |  |  |  |  |  |  |  |  |  |  |  |  |  |  |  |  | Chemical stability (in words) [12]: adequately chemically stable |
